Reference: patent publication US20050058636A1, “Medicament against thrombotic diseases” (priority 2002, published 2005)

How the values were obtained:
[1] = target: T1, binding of PAI-1 to vitronectin in PAI-1-depleted extracellular matrix of endothelial cells (Homo sapiens, UniProt P04004); assay: Binding of PAI-1 to endothelial cell matrix; conditions: 2 μg/ml PAI-1; competitors each 500 nM; 10 μM ZnCl2 (FIG. 1)
T1 construct: The extracellular matrix of human umbilical vein endothelial cells was prepared according to standard procedures; endogenous in cells; host or cells: extracellular matrix of human umbilical vein endothelial cells, glycine-treated
T1 sequence (P04004 20-478): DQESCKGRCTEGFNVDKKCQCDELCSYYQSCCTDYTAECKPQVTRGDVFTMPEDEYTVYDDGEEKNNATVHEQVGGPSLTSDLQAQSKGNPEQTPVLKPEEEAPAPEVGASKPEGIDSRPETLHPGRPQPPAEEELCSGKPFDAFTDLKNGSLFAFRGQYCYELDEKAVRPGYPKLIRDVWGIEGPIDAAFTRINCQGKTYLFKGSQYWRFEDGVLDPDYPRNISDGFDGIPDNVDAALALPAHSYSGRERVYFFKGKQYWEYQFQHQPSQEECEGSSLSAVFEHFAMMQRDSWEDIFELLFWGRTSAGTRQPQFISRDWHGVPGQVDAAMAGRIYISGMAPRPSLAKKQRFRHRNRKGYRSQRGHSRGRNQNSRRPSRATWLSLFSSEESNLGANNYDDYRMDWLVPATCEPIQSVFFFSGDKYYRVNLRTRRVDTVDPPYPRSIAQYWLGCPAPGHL
Protocol: The extracellular matrix of human umbilical vein endothelial cells was prepared according to standard procedures. PAI-1-depleted extracellular matrix was obtained by subsequent incubation with glycine (0.1 M, pH 2.3) for 2 h at 25° C. Wells were washed and blocked with phosphate buffered saline containing 3% (wt/vol) bovine serum albumin before proceeding with binding assays. Binding of PAI-1 (2 μg/ml) to the extracellular matrix was performed in a final volume of 50 μl Tris-buffered saline containing 0.1% Tween-20, 0.3% (wt/vol) bovine serum albumin for 2 h at 22° C. in the absence or presence of […] and different kininogen forms. Following the incubation period and a washing step, bound PAI-1 was quantitated by anti-human PAI-1 monoclonal antibody 12A4, followed by addition of 1:1000 diluted peroxidase-conjugated goat anti-mouse immunoglobulins. The conversion of the substrate 2,2,-azino-di(3-ethyl) benz-thiazoline sulphate was monitored at 405 nm in a Thermomax microtiter plate reader. […]
FIG. 1 The binding of 2 μg/ml PAI-1 to PAI-1-depleted (2 h glycine preincubation) extracellular matrix of cultured endothelial cells was tested in the absence (−)or presence of HK, HKa, GST-domain 5 (D5), the peptides HK483 and HK486 (each 500 nM) in a buffer containing 10 μM ZnCl2. Specific binding of PAI-1 is presented as absorbance at 405 nm.

[2] = tested on: PAI-1; assay: Urokinase-mediated clot lysis in the presence of PAI-1; format: biochemical; conditions: not shown
[3] = target: T2, platelet αIIbβ3-integrin with vitronectin (Homo sapiens, UniProt P04004); assay: Binding of vitronectin to αIIbβ3-integrin; conditions: vitronectin 2 μg/ml, immobilized αIIbβ3-integrin 5 μg/ml, 10 μM ZnCl2 (FIG. 3)
T2 sequence (P04004 20-478): T1 sequence (P04004 20-478)
Protocol: Microtiter plates were coated with 5 μg/ml αIIbβ3-integrin in Tris-buffered saline, pH 7.4, containing 1 mM CaCl2, 1 mM MgCl2 overnight at 4° C. and then blocked with 3% (w/v) bovine serum albumin. Binding of multimeric vitronectin (2 μg/ml) was performed in a final volume of 50 μl Tris-buffered saline containing 0.1% Tween-20, 0.3% (w/v) bovine serum albumin, 1 mM CaCl2 and 1 mM MgCl2 for 2 h at 22° C. in the absence or presence of 10 μM ZnCl2 and different kininogen forms. After the incubation period, monoclonal anti-vitronectin antibody VN7 at a concentration of 125 ng/ml was added, followed by addition of 1:1000 diluted peroxidase-conjugated goat anti-mouse immunoglobulins, respectively. Binding was quantitated as described above.
FIG. 3 The binding of vitronectin (2 μg/ml) to immobilized αIIbβ3-integrin (5 μg/ml) in the absence or presence of increasing concentrations of PAI-1 (filled squares), HKa (filled circles) or GST-domain 5 (open circles) in a buffer containing 10 μM ZnCl2 was carried out. Specific binding is presented as absorbance at 405 nm.

[4] = tested on: platelets; assay: Platelet adhesion onto vitronectin-coated plates; format: cell-based; conditions: competitors each 250 nM (FIG. 4)
Protocol: Multiwell plates were coated with 5 μg/ml multimeric vitronectin (dissolved in bicarbonate buffer, pH 9.6) and blocked with 3% (wt/vol) bovine serum albumin for 16 h at 4° C. Platelets stained with calcein acetoxymethyl ester (calcein-AM, 2.5 μM) (15 min at 37° C. in the dark) at a density of 5×10^6 cells suspended in 50 μl HEPES-Tyrode buffer containing 4 mM MgCl2 were added together with the respective competitors and incubated for 30 min at 37° C. After three washes with phosphate buffered saline, bound platelets were lysed with 100 μl of lysis buffer (150 mM NaCl, 10 mM Tris-CH1, pH 7.5, 5 mM EDTA, 1% (wt/vol) NP-40, 1 mM phenyl-methylsulfonyl fluoride, 20 μg/ml soybean trypsin inhibitor) and quantified in a fluorescent plate reader (excitation filter 492 nm, emission filter 535 nm).
FIG. 4. The adhesion of platelets to vitronectin in the absence (−) or presence of HK, HKa, GST-domain 5(D5), or the peptides HK483 and HK486 (each 250 nM) was carried out. Cell adhesion is presented as % of control.

[5] = tested on: platelet-rich plasma; assay: Aggregation of platelet-rich plasma; format: cell-based; conditions: Adenosin-diphosphate (5 μM)-induced; competitors each 1000 nM (FIG. 5)
Protocol: Platelet-rich plasma from fresh whole blood in sodium citrate was prepared by centrifugation of anticoagulated whole blood at 150 g for 20 min. After incubation of 0.45 ml of platelet rich plasma with different kininogen forms as indicated in the figure legends, and addition of 5 μl of […] at a final concentration of 5 μM, platelet aggregation was induced. Aggregation was quantitated by following the change in light transmission in a standardized aggregometer.
FIG. 5 Adenosin-diphosphate (5 μM)-induced aggregation of platelet-rich plasma was performed in the absence (−) or presence of GST-domain 5 (D5), or the peptides HK483 and HK486 (each 1000 nM). Platelet aggregation is presented as % of control.

For “Gly-486-Lys-502 (GKHKNKGKKNGKHNGWK; UniProt P01042 504-520, looked up, fragment) [HK486, peptide derived from the carboxy-terminus of the domain 5 of HK]”, which “binding of PAI-1 to vitronectin in PAI-1-depleted (glycine-treated) extracellular matrix of endothelial cells” value [1] is on record?
Its value is “inhibited”.

What about the “urokinase-mediated clot lysis, which is inhibited in the presence of PAI-1” value [2] of the same substance?
Its value is “enhance”.

What about the “interaction of platelet αIIbβ3-integrin with vitronectin” value [3] of the same substance?
Its value is “block”.

What about the “αIIbβ3-integrin-mediated platelet adhesion to vitronectin” value [4] of the same substance?
Its value is “block”.

What about the “aggregation of platelet-rich plasma” value [5] of the same substance?
The value was “inhibit”.
